This note sets out measurements from patent publication US20090082371A1, “Treatment of Viral Disease and Cancer With Nf-kappaB Inhibitors” (priority 2005, published 2009).

Data set [1] relates to A431 human epidermoid carcinoma cells. Kind of data set: Cancer cell growth, viable cell count by trypan blue exclusion. The format is cell-based. The conditions noted are these: A431, 5 μM; for cell apoptosis: day 6; for % inhibition of cell growth: day 6, vs untreated cells. The text has this: (§1) The tested cells include LNCAP human prostate cancer cells, MDA-MB-468 human breast cancer cells, H1299 human lung cancer cells, AGS human gastric cancer cells, HepG2 human liver cancer cells, PANC-1 human pancreatic carcinoma cells, Jurkat human acute T-cell leukemia cells, A431 human epidermoid carcinoma cells, U251 human glioma cells, NBT-II human bladder cancer cells, and Hela human cervical cancer cells.

Data set [2] deals with AGS human gastric cancer cells. The data set is described as above. It counts as cell-based. The settings on record: for inhibition at 5 µM: Homo sapiens, 144 h.
Text: as §1

Data set [3] deals with H1299 human lung cancer cells. The description is as above. The format is cell-based. The conditions noted are these: H1299, 5 μM.
Text: as §1

For data set [4], the system named is Hela human cervical cancer cells. The description is as above. The format is cell-based. The conditions noted are these: for inhibition at 5 µM: Homo sapiens, 144 h; for inhibition at 5 µM / % inhibition of cell growth: day 6, vs untreated cells.
Text: as §1

Data set [5] has as its system HepG2 human liver cancer cells. The description is as above. The format is cell-based. The conditions noted are these: HepG2, 5 μM.
Text: as §1

In data set [6] the test system is LNCAP human prostate cancer cells. The description is as above. The format is cell-based.
Text: as §1

In data set [7] the test system is MDA-MB-468 human breast cancer cells. Described as above. The format is cell-based. The conditions noted are these: MDA-MB-468, 5 μM.
Text: as §1

Data set [8] relates to NBT-II human bladder cancer cells. The description is as above. The format is cell-based. The settings on record: for inhibition at 5 µM: Homo sapiens, 144 h.
Text: as §1

Data set [9] relates to PANC-1 human pancreatic carcinoma cells. The description is as above. It counts as cell-based. The settings on record: PANC-1, 5 μM.
Text: as §1

The next data set relates to U251 human glioma cells. The data set is described as above. The conditions noted are these: U251, 5 μM; for cell apoptosis: day 6. It counts as cell-based.
Text: as §1

The subject of data set [10] is VSV-G-enveloped HIV-Luciferase viruses (HIV-1).
Data set [11] deals with retrovirus expressing GFP. The conditions noted are these: 293T cells, tested dosages, two days after infection.
Text: 293T human embryonic kidney cells were infected with the GFP-retrovirus. […] Two days later, the cells were photographed with a digital camera mounted on a microscope. […] Data represent the mean±standard deviation of three independent experiments.
Two days later, the number of infected cells from two separate experiments was counted.
In data set [12] the test system is Jurkat human acute T-cell leukemia cells. Kind of data set: Cancer cell growth, viable cell count by trypan blue exclusion. The format is cell-based. The settings on record: 5 μM.
Text: as §1

For a further data set, the system named is HT29 cells. The description is as above. It counts as cell-based. The conditions noted are these: HT29, 5 μM.
For another data set, the system named is cells listed in Table 1. Kind of data set: Cancer cell growth, panel of cells listed in Table 1. The settings on record: 5 μM, day 6, vs untreated cells. It counts as cell-based, human.
Text: as §1

[13] abbreviates: Homo sapiens, 144 h, day 6, vs untreated cells.
[14] abbreviates: day 6, about 4×10^4 cells at start.
[15] abbreviates: 5 μM, day 6, about 4×10^4 cells at start.
The mark [16] stands for this setting: 5 μM, day 6, vs untreated cells.

For the compound `COc1ccc([C@@]23Oc4cc(OC)cc(OC)c4[C@]2(O)[C@H](O)[C@H](C(=O)N(C)C)[C@H]3c2ccccc2)cc1` [rocaglamide, reference compound], the cell apoptosis entry (in data set [1]; in [7] (day 6); in the data set with U251 human glioma cells) was “completely cell apoptosis” throughout. The inhibition at 5 µM in data set [2] (day 6, vs untreated cells) was roughly 50%; in data set [3] (Homo sapiens, NCI-H1299, 144 h, day 6, vs untreated cells), roughly 80%; in data set [4] it was 9 to 40%; in data set [5] (setting [13]), 9 to 40%; in data set [6] (setting [13]) it was roughly 70%; in [8] (day 6, vs untreated cells), 9 to 40%. This compound gave an inhibition at 5 µM in data set [9] (setting [13]) of 9 to 40%. In addition, in data set [10], the cell deaths observed entry is “no obvious cell deaths”. For the same compound, the “inhibition of HIV-1 viral infection and replication (HIV-1-induced Luciferase activity)” value (“inhibition … (HIV-1-induced Luciferase activity)” below) in data set [10] was “showed inhibition”.

On to `COc1cc(O)c2c(c1)oc(=O)c1c3cc(O)c(O)cc3oc21` [7-Methoxy-5,11,12-trihydroxy-coumestan], for which the “% inhibition of cell growth” value in data set [1] is listed as “about 51%”; in data set [3] (day 6, vs untreated cells) it was roughly 31%; in data set [4] (5 μM), roughly 29%; in [5] (day 6, vs untreated cells), roughly 25%; in [7] (day 6, vs untreated cells), roughly 10%.

In the case of `Nc1ccc2ncnc(NCCc3ccc(OCc4ccccc4)cc3)c2c1`, the cell deaths observed entry in data set [11] was “no obvious cell deaths”. Besides, in data set [10], the cell deaths observed result was “no obvious cell deaths”; the “inhibition … (HIV-1-induced Luciferase activity)” value is reported as “showed inhibition”.

Consider `C=CCOc1ccc(CCNc2ncnc3ccc(N)cc23)cc1`, for which the cell deaths observed entry in [11] was “no obvious cell deaths”. In data set [10], the cell deaths observed entry is listed as “no obvious cell deaths”; the “inhibition … (HIV-1-induced Luciferase activity)” value is listed as “showed inhibition”.

As to `O=C(/C=C/c1ccc(O)c(O)c1)OCCc1ccccc1` [cape, reference compound], in [10], the cell deaths observed entry is “no obvious cell deaths”; the “inhibition … (HIV-1-induced Luciferase activity)” value is recorded as “showed inhibition”.

With `Nc1ccc2ncnc(NCCc3ccc(OCc4ccccn4)cc3)c2c1`, the cell deaths observed result in data set [11] is “no obvious cell deaths”. In addition, in [10], the cell deaths observed result is recorded as “no obvious cell deaths”; the “inhibition … (HIV-1-induced Luciferase activity)” value was “showed inhibition”.

For the compound `CC1=C(O)C(=O)C=C2C1=CC=C1[C@@]2(C)CC[C@@]2(C)[C@@H]3C[C@](C)(C(=O)O)CC[C@]3(C)CC[C@]12C` [celastrol, 3-hydroxy-24-nor-2-oxo-1(10),3,5,7-friedelatetraen-29-oic Acid, reference compound], in data set [12] (day 6), the cell apoptosis result is “about 90%”. Moreover, the cell deaths observed result in data set [10] was “no obvious cell deaths”.

For `Cc1ccc(S(=O)(=O)/C=C/C#N)cc1` [BAY 11-7082, (E)3-[(4-Methylphenyl)sulfonyl]-2-propenenitrile, reference compound], the cell apoptosis result is on record as “completely cell apoptosis” in data set [1]; “completely cell apoptosis” in data set [3] (day 6); “completely cell apoptosis” in [5] (day 6); “completely cell apoptosis” in [6] (5 μM, day 6); “completely cell apoptosis” in data set [9] (day 6); “completely cell apoptosis” in the data set on U251 human glioma cells. The inhibition at 5 µM in data set [2] (day 6, vs untreated cells) is roughly 90%; in [4], 9 to 12%; in data set [7] (setting [13]) it was 9 to 12%; in [8] (day 6, vs untreated cells), 9 to 12%.

In the case of `Nc1ccc2ncnc(NCCc3ccc(Oc4ccccc4)cc3)c2c1`, the “Treated (cell number × 10^5)” value in the data set on HT29 cells (setting [14]) was 1.9 ± 0.1 × 10^5; in [1] (setting [14]), 3.2 ± 0.2 × 10^5; in data set [2] (setting [15]) it was 2.1 ± 0.1 × 10^5; in data set [3] (setting [14]), 3 ± 0.2 × 10^5; in [4] (setting [15]), 1.1 ± 0.1 × 10^5; in data set [5] (setting [14]), 0.8 ± 0.1 × 10^5. The “Treated (cell number × 10^5)” value was 6.3 ± 0.4 × 10^5 in [12] (setting [14]); 0.7 ± 0.2 × 10^5 in data set [6] (setting [15]); 5.4 ± 0.1 × 10^5 in data set [7] (setting [14]); 2.7 ± 0.1 × 10^5 in data set [8] (setting [15]); 1.9 ± 0.1 × 10^5 in data set [9] (setting [14]); 7.2 ± 0.2 × 10^5 in the data set on U251 human glioma cells (setting [14]). The “% inhibition of cell growth” value turned out to be 50% in the data set with HT29 cells (day 6, vs untreated cells); 59% in data set [1]; 10% in data set [2] (setting [16]); 52% in data set [3] (day 6, vs untreated cells); 70% in data set [4] (5 μM); 80% in data set [5] (day 6, vs untreated cells). For the same compound, the “% inhibition of cell growth” value in data set [12] (day 6, vs untreated cells) is listed as 28%; in data set [6] (setting [16]), 90%; in [7] (day 6, vs untreated cells) it was 10%; in data set [8] (setting [16]) it was 10%; in [9] (day 6, vs untreated cells), 14%; with U251 human glioma cells (day 6, vs untreated cells) it was 20%. In addition, in the data set with cells listed in Table 1, the “inhibition of cell growth, range over the cancer cells of Table 1” value is listed as 10-90%. Moreover, the cell deaths observed entry in data set [11] and in data set [10] was “no obvious cell deaths” each time. For the same compound, the “inhibition … (HIV-1-induced Luciferase activity)” value in [10] is “showed inhibition”.
